The NIST ThermoML archive (doi:10.1021/je5007532)
± gives the expanded uncertainty stated by the source.

Test: xn = mol fraction of the nth substance listed
Conditions: for viscosity: 100 kPa, Falling or rolling sphere viscometry; for viscosity / speed of sound / mass density: Liquid; for speed of sound / mass density: 101 kPa; for speed of sound: Sing-around technique in a fixed-path interferometer; for mass density: Vibrating tube method; for surface tension liquid-gas: 294.4 K, Pendant drop shape

CC(C)CC(C)(C)C [2,2,4-trimethylpentane] + CCCCCCC
Conditions | mass density [kg/m3] | speed of sound [m/s] | viscosity [mPa·s]
293.15 K, x1 = 0.1 | 684.83 ± 0.19 | 1146.5 ± 0.8 | 0.416 ± 0.004
293.15 K, x1 = 0.2001 | 685.71 ± 0.16 | 1141.7 ± 0.8 | 0.423 ± 0.004
293.15 K, x1 = 0.2999 | 686.59 ± 0.17 | 1136.6 ± 0.8 | 0.43 ± 0.004
293.15 K, x1 = 0.4001 | 687.45 ± 0.17 | 1131.6 ± 0.8 | 0.438 ± 0.004
293.15 K, x1 = 0.5001 | 688.28 ± 0.17 | 1127 ± 0.8 | 0.447 ± 0.004
293.15 K, x1 = 0.6 | 689.06 ± 0.17 | 1122 ± 0.8 | 0.456 ± 0.004
293.15 K, x1 = 0.6999 | 689.77 ± 0.17 | 1117.2 ± 0.8 | 0.466 ± 0.004
293.15 K, x1 = 0.8 | 690.5 ± 0.17 | 1112.5 ± 0.8 | 0.477 ± 0.004
293.15 K, x1 = 0.9 | 691.17 ± 0.17 | 1107.7 ± 0.8 | 0.488 ± 0.004
293.15 K, x1 = 1 | 691.84 ± 0.17 | 1103.2 ± 0.8 | 0.501 ± 0.004
298.15 K, x1 = 0.1 | 680.61 ± 0.19 | 1125.3 ± 0.8 | 0.394 ± 0.004
298.15 K, x1 = 0.2001 | 681.5 ± 0.17 | 1120.5 ± 0.8 | 0.4 ± 0.004
298.15 K, x1 = 0.2999 | 682.4 ± 0.17 | 1115.5 ± 0.8 | 0.407 ± 0.004
298.15 K, x1 = 0.4001 | 683.27 ± 0.17 | 1110.5 ± 0.8 | 0.415 ± 0.004
298.15 K, x1 = 0.5001 | 684.12 ± 0.17 | 1105.9 ± 0.8 | 0.423 ± 0.004
298.15 K, x1 = 0.6 | 684.91 ± 0.17 | 1101 ± 0.8 | 0.432 ± 0.004
298.15 K, x1 = 0.6999 | 685.63 ± 0.17 | 1096.2 ± 0.8 | 0.441 ± 0.004
298.15 K, x1 = 0.8 | 686.36 ± 0.17 | 1091.6 ± 0.8 | 0.451 ± 0.004
298.15 K, x1 = 0.9 | 687.05 ± 0.17 | 1086.7 ± 0.8 | 0.462 ± 0.004
298.15 K, x1 = 1 | 687.7 ± 0.17 | 1082 ± 0.8 | 0.473 ± 0.004
303.15 K, x1 = 0.1 | 676.36 ± 0.2 | 1103.9 ± 0.7 | 0.373 ± 0.003
303.15 K, x1 = 0.2001 | 677.27 ± 0.17 | 1099.2 ± 0.8 | 0.379 ± 0.003
303.15 K, x1 = 0.2999 | 678.18 ± 0.17 | 1094.2 ± 0.8 | 0.386 ± 0.004
303.15 K, x1 = 0.4001 | 679.07 ± 0.17 | 1089.3 ± 0.8 | 0.393 ± 0.004
303.15 K, x1 = 0.5001 | 679.93 ± 0.17 | 1084.7 ± 0.8 | 0.4 ± 0.004
303.15 K, x1 = 0.6 | 680.73 ± 0.17 | 1079.9 ± 0.8 | 0.408 ± 0.004
303.15 K, x1 = 0.6999 | 681.46 ± 0.17 | 1075.1 ± 0.8 | 0.417 ± 0.004
303.15 K, x1 = 0.8 | 682.2 ± 0.17 | 1070.5 ± 0.8 | 0.426 ± 0.004
303.15 K, x1 = 0.9 | 682.89 ± 0.17 | 1065.8 ± 0.8 | 0.436 ± 0.004
303.15 K, x1 = 1 | 683.59 ± 0.17 | 1061.4 ± 0.8 | 0.447 ± 0.004
308.15 K, x1 = 0.1 | 672.09 ± 0.2 | 1082.7 ± 0.7 | 0.355 ± 0.003
308.15 K, x1 = 0.2001 | 673.01 ± 0.17 | 1078 ± 0.7 | 0.36 ± 0.003
308.15 K, x1 = 0.2999 | 673.93 ± 0.17 | 1073.1 ± 0.8 | 0.366 ± 0.003
308.15 K, x1 = 0.4001 | 674.83 ± 0.17 | 1068.2 ± 0.8 | 0.373 ± 0.003
308.15 K, x1 = 0.5001 | 675.71 ± 0.17 | 1063.7 ± 0.8 | 0.38 ± 0.003
308.15 K, x1 = 0.6 | 676.52 ± 0.17 | 1058.9 ± 0.8 | 0.387 ± 0.004
308.15 K, x1 = 0.6999 | 677.26 ± 0.17 | 1054.2 ± 0.8 | 0.396 ± 0.004
308.15 K, x1 = 0.8 | 678.02 ± 0.17 | 1049.7 ± 0.8 | 0.404 ± 0.004
308.15 K, x1 = 0.9 | 678.72 ± 0.17 | 1045 ± 0.8 | 0.413 ± 0.004
308.15 K, x1 = 1 | 679.4 ± 0.17 | 1040.4 ± 0.8 | 0.423 ± 0.004
313.15 K, x1 = 0.1 | 667.78 ± 0.2 | 1061.7 ± 0.7 | –
313.15 K, x1 = 0.2001 | 668.71 ± 0.17 | 1057 ± 0.7 | –
313.15 K, x1 = 0.2999 | 669.65 ± 0.17 | 1052.2 ± 0.7 | –
313.15 K, x1 = 0.4001 | 670.57 ± 0.17 | 1047.3 ± 0.8 | –
313.15 K, x1 = 0.5001 | 671.46 ± 0.17 | 1042.8 ± 0.8 | –
313.15 K, x1 = 0.6 | 672.28 ± 0.17 | 1038.1 ± 0.8 | –
313.15 K, x1 = 0.6999 | 673.03 ± 0.17 | 1033.5 ± 0.8 | –
313.15 K, x1 = 0.8 | 673.8 ± 0.17 | 1029 ± 0.8 | –
313.15 K, x1 = 0.9 | 674.52 ± 0.18 | 1024.3 ± 0.8 | –
313.15 K, x1 = 1 | 675.23 ± 0.17 | 1020 ± 0.8 | –
318.15 K, x1 = 0.1 | 663.44 ± 0.2 | 1040.7 ± 0.7 | 0.32 ± 0.003
318.15 K, x1 = 0.2001 | 664.39 ± 0.17 | 1036.1 ± 0.7 | 0.325 ± 0.003
318.15 K, x1 = 0.2999 | 665.34 ± 0.17 | 1031.3 ± 0.7 | 0.33 ± 0.003
318.15 K, x1 = 0.4001 | 666.28 ± 0.17 | 1026.5 ± 0.8 | 0.336 ± 0.003
318.15 K, x1 = 0.5001 | 667.18 ± 0.17 | 1022.1 ± 0.8 | 0.343 ± 0.003
318.15 K, x1 = 0.6 | 668.02 ± 0.17 | 1017.4 ± 0.8 | 0.349 ± 0.003
318.15 K, x1 = 0.6999 | 668.78 ± 0.17 | 1012.8 ± 0.8 | 0.356 ± 0.003
318.15 K, x1 = 0.8 | 669.55 ± 0.18 | 1008.4 ± 0.8 | 0.363 ± 0.003
318.15 K, x1 = 0.9 | 670.28 ± 0.18 | 1003.8 ± 0.8 | 0.372 ± 0.003
318.15 K, x1 = 1 | 670.98 ± 0.17 | 999.3 ± 0.8 | 0.38 ± 0.004
323.15 K, x1 = 0.1 | 659.07 ± 0.2 | 1019.8 ± 0.7 | 0.305 ± 0.003
323.15 K, x1 = 0.2001 | 660.04 ± 0.17 | 1015.2 ± 0.7 | 0.309 ± 0.003
323.15 K, x1 = 0.2999 | 661 ± 0.17 | 1010.5 ± 0.7 | 0.314 ± 0.003
323.15 K, x1 = 0.4001 | 661.95 ± 0.17 | 1005.7 ± 0.7 | 0.32 ± 0.003
323.15 K, x1 = 0.5001 | 662.86 ± 0.17 | 1001.4 ± 0.8 | 0.326 ± 0.003
323.15 K, x1 = 0.6 | 663.71 ± 0.17 | 996.8 ± 0.8 | 0.332 ± 0.003
323.15 K, x1 = 0.6999 | 664.49 ± 0.18 | 992.3 ± 0.8 | 0.338 ± 0.003
323.15 K, x1 = 0.8 | 665.28 ± 0.18 | 987.9 ± 0.8 | 0.345 ± 0.003
323.15 K, x1 = 0.9 | 666.02 ± 0.18 | 983.3 ± 0.8 | 0.353 ± 0.003
323.15 K, x1 = 1 | 666.75 ± 0.18 | 979.2 ± 0.8 | 0.361 ± 0.003
328.15 K, x1 = 0.1 | 654.65 ± 0.2 | 999 ± 0.7 | 0.291 ± 0.003
328.15 K, x1 = 0.2001 | 655.64 ± 0.17 | 994.4 ± 0.7 | 0.295 ± 0.003
328.15 K, x1 = 0.2999 | 656.61 ± 0.17 | 989.8 ± 0.7 | 0.3 ± 0.003
328.15 K, x1 = 0.4001 | 657.59 ± 0.17 | 985.1 ± 0.7 | 0.305 ± 0.003
328.15 K, x1 = 0.5001 | 658.52 ± 0.18 | 980.8 ± 0.7 | 0.311 ± 0.003
328.15 K, x1 = 0.6 | 659.37 ± 0.18 | 976.3 ± 0.8 | 0.316 ± 0.003
328.15 K, x1 = 0.6999 | 660.16 ± 0.18 | 971.8 ± 0.8 | 0.323 ± 0.003
328.15 K, x1 = 0.8 | 660.98 ± 0.18 | 967.4 ± 0.8 | 0.329 ± 0.003
328.15 K, x1 = 0.9 | 661.73 ± 0.18 | 963 ± 0.8 | 0.335 ± 0.003
328.15 K, x1 = 1 | 662.44 ± 0.18 | 958.7 ± 0.8 | 0.343 ± 0.003
333.15 K, x1 = 0.1 | 650.21 ± 0.2 | 978.3 ± 0.7 | 0.276 ± 0.005
333.15 K, x1 = 0.2001 | 651.22 ± 0.18 | 973.9 ± 0.7 | 0.28 ± 0.005
333.15 K, x1 = 0.2999 | 652.2 ± 0.18 | 969.2 ± 0.7 | 0.286 ± 0.005
333.15 K, x1 = 0.4001 | 653.19 ± 0.18 | 964.6 ± 0.7 | 0.29 ± 0.005
333.15 K, x1 = 0.5001 | 654.14 ± 0.18 | 960.4 ± 0.7 | 0.294 ± 0.005
333.15 K, x1 = 0.6 | 655.01 ± 0.18 | 955.8 ± 0.8 | 0.3 ± 0.005
333.15 K, x1 = 0.6999 | 655.81 ± 0.18 | 951.6 ± 0.8 | 0.306 ± 0.005
333.15 K, x1 = 0.8 | 656.64 ± 0.18 | 947.3 ± 0.8 | 0.313 ± 0.005
333.15 K, x1 = 0.9 | 657.4 ± 0.18 | 942.9 ± 0.8 | 0.319 ± 0.005
333.15 K, x1 = 1 | 658.16 ± 0.18 | 938.6 ± 0.8 | 0.326 ± 0.005
338.15 K, x1 = 0.1 | 645.76 ± 0.2 | 957.8 ± 0.7 | –
338.15 K, x1 = 0.2001 | 646.75 ± 0.18 | 953.3 ± 0.7 | –
338.15 K, x1 = 0.2999 | 647.77 ± 0.18 | 948.7 ± 0.7 | –
338.15 K, x1 = 0.4001 | 648.75 ± 0.18 | 944.3 ± 0.7 | –
338.15 K, x1 = 0.5001 | 649.71 ± 0.18 | 940.1 ± 0.7 | –
338.15 K, x1 = 0.6 | 650.6 ± 0.18 | 935.8 ± 0.7 | –
338.15 K, x1 = 0.6999 | 651.41 ± 0.18 | 931.3 ± 0.8 | –
338.15 K, x1 = 0.8 | 652.29 ± 0.18 | 927.2 ± 0.8 | –
338.15 K, x1 = 0.9 | 653.03 ± 0.18 | 922.9 ± 0.8 | –
338.15 K, x1 = 1 | 653.8 ± 0.18 | 918.7 ± 0.8 | –
343.15 K, x1 = 1 | 649.4 ± 0.18 | 899 ± 0.6 | –

Conditions | surface tension liquid-gas [mN/m]
x1 = 0.1 | 19.9 ± 0.3
x1 = 0.2001 | 19.7 ± 0.3
x1 = 0.2999 | 19.5 ± 0.3
x1 = 0.4001 | 19.4 ± 0.3
x1 = 0.5001 | 19.2 ± 0.3
x1 = 0.6999 | 19 ± 0.3
x1 = 0.8 | 18.9 ± 0.3
x1 = 1 | 18.7 ± 0.4
